Source: the supplement of paper PMC13380429

How the values were obtained:
Details in all cases: 72 h
Caco-2 [1] = experiment: cell viability relative to DMSO; higher = less toxic
Calu-3 [2] = experiment: as above
U2OS [3] = experiment: as above
Vero E6 [4] = experiment: as above
Caco-2 [5] = experiment: relative viability EC50 (midpoint between 100% and the lowest measured viability); higher = less toxic
Calu-3 [6] = experiment: as above
U2OS [7] = experiment: as above
Vero E6 [8] = experiment: as above
Caco-2 [9] = experiment: drug sensitivity score (DSS) for viability; higher = more toxic; extreme values may be limits of the assay
Calu-3 [10] = experiment: as above
U2OS [11] = experiment: as above
Vero E6 [12] = experiment: as above
HepG2 [13] = experiment: as above
HepG2 [14] = experiment: cell viability relative to DMSO; higher = less toxic

COc1ccc(C(C)=O)c(O)c1 [paeonol]
cell viability (Caco-2 [1]; 1 nM): 96.6%
cell viability (Caco-2 [1]; 10 nM): 96%
cell viability (Caco-2 [1]; 100 nM): 103%
cell viability (Caco-2 [1]; 1000 nM): 96.5%
cell viability (Caco-2 [1]; 10000 nM): 110%
cell viability (Calu-3 [2]; 1 nM): 95.6%
cell viability (Calu-3 [2]; 10 nM): 95.9%
cell viability (Calu-3 [2]; 100 nM): 91.2%
cell viability (Calu-3 [2]; 1000 nM): 99.8%
cell viability (Calu-3 [2]; 10000 nM): 105%
cell viability (U2OS [3]; 1 nM): 95%
cell viability (U2OS [3]; 10 nM): 96.8%
cell viability (U2OS [3]; 100 nM): 95.8%
cell viability (U2OS [3]; 1000 nM): 95.8%
cell viability (U2OS [3]; 10000 nM): 97.7%
cell viability (Vero E6 [4]; 1 nM): 95.4%
cell viability (Vero E6 [4]; 10 nM): 98.7%
cell viability (Vero E6 [4]; 100 nM): 96.9%
cell viability (Vero E6 [4]; 1000 nM): 94.1%
cell viability (Vero E6 [4]; 10000 nM): 106%
relative viability EC50 (Caco-2 [5]): > 10 µM
relative viability EC50 (Calu-3 [6]): > 10 µM
relative viability EC50 (U2OS [7]): > 10 µM
relative viability EC50 (Vero E6 [8]): > 10 µM
drug sensitivity score (Caco-2 [9]): 0
drug sensitivity score (Calu-3 [10]): 0
drug sensitivity score (U2OS [11]): 0
drug sensitivity score (Vero E6 [12]): 0

NC(=S)N/N=C/c1ccncc1 [perchlozone]
cell viability (Caco-2 [1]; 1 nM): 97.2%
cell viability (Caco-2 [1]; 10 nM): 100%
cell viability (Caco-2 [1]; 100 nM): 91.1%
cell viability (Caco-2 [1]; 1000 nM): 106%
cell viability (Caco-2 [1]; 10000 nM): 92.6%
cell viability (Calu-3 [2]; 1 nM): 104%
cell viability (Calu-3 [2]; 10 nM): 100%
cell viability (Calu-3 [2]; 100 nM): 105%
cell viability (Calu-3 [2]; 1000 nM): 95.6%
cell viability (Calu-3 [2]; 10000 nM): 100%
cell viability (U2OS [3]; 1 nM): 102%
cell viability (U2OS [3]; 10 nM): 98.4%
cell viability (U2OS [3]; 100 nM): 101%
cell viability (U2OS [3]; 1000 nM): 104%
cell viability (U2OS [3]; 10000 nM): 106%
cell viability (Vero E6 [4]; 1 nM): 93.9%
cell viability (Vero E6 [4]; 10 nM): 98.9%
cell viability (Vero E6 [4]; 100 nM): 93.7%
cell viability (Vero E6 [4]; 1000 nM): 99.2%
cell viability (Vero E6 [4]; 10000 nM): 108%
relative viability EC50 (Caco-2 [5]): > 10 µM
relative viability EC50 (Calu-3 [6]): > 10 µM
relative viability EC50 (U2OS [7]): > 10 µM
relative viability EC50 (Vero E6 [8]): > 10 µM
drug sensitivity score (Caco-2 [9]): 0
drug sensitivity score (Calu-3 [10]): 0
drug sensitivity score (U2OS [11]): 0
drug sensitivity score (Vero E6 [12]): 0

CC(=O)O[C@H]1CC[C@@]2(C)C(=CC[C@@H]3[C@@H]2CC[C@]2(C)C(=O)CC[C@@H]32)C1 [prasterone-acetate]
drug sensitivity score (Calu-3 [10]): 0
drug sensitivity score (HepG2 [13]): 0
drug sensitivity score (U2OS [11]): 0
drug sensitivity score (Vero E6 [12]): 0

O=C1c2ccccc2-c2n[nH]c3cccc1c23 [pyrazolanthrone]
cell viability (Caco-2 [1]; 1 nM): 111%
cell viability (Caco-2 [1]; 10 nM): 92.3%
cell viability (Caco-2 [1]; 100 nM): 99.4%
cell viability (Caco-2 [1]; 1000 nM): 102%
cell viability (Caco-2 [1]; 10000 nM): 97.9%
cell viability (Calu-3 [2]; 1 nM): 94.9%
cell viability (Calu-3 [2]; 10 nM): 95.7%
cell viability (Calu-3 [2]; 100 nM): 92.4%
cell viability (Calu-3 [2]; 1000 nM): 100%
cell viability (Calu-3 [2]; 10000 nM): 98.6%
cell viability (HepG2 [14]; 1 nM): 101%
cell viability (HepG2 [14]; 10 nM): 80.2%
cell viability (HepG2 [14]; 100 nM): 96.8%
cell viability (HepG2 [14]; 1000 nM): 82.4%
cell viability (HepG2 [14]; 10000 nM): 71.5%
cell viability (Vero E6 [4]; 1 nM): 94.7%
cell viability (Vero E6 [4]; 10 nM): 102%
cell viability (Vero E6 [4]; 100 nM): 99.8%
cell viability (Vero E6 [4]; 1000 nM): 106%
cell viability (Vero E6 [4]; 10000 nM): 105%
relative viability EC50 (Caco-2 [5]): > 10 µM
relative viability EC50 (Calu-3 [6]): > 10 µM
relative viability EC50 (Vero E6 [8]): > 10 µM
drug sensitivity score (Caco-2 [9]): 0
drug sensitivity score (Calu-3 [10]): 0
drug sensitivity score (HepG2 [13]): 3.3
drug sensitivity score (Vero E6 [12]): 0

CN1CCN(CCOc2cc(OC3CCOCC3)c3c(Nc4c(Cl)ccc5c4OCO5)ncnc3c2)CC1 [saracatinib]
cell viability (Caco-2 [1]; 1 nM): 107%
cell viability (Caco-2 [1]; 10 nM): 102%
cell viability (Caco-2 [1]; 100 nM): 102%
cell viability (Caco-2 [1]; 1000 nM): 84.4%
cell viability (Caco-2 [1]; 10000 nM): 63.8%
cell viability (Calu-3 [2]; 1 nM): 87.7%
cell viability (Calu-3 [2]; 10 nM): 116%
cell viability (Calu-3 [2]; 100 nM): 95%
cell viability (Calu-3 [2]; 1000 nM): 42.3%
cell viability (Calu-3 [2]; 10000 nM): 9.6%
cell viability (HepG2 [14]; 1 nM): 100%
cell viability (HepG2 [14]; 10 nM): 101%
cell viability (HepG2 [14]; 100 nM): 107%
cell viability (HepG2 [14]; 1000 nM): 80.2%
cell viability (HepG2 [14]; 10000 nM): 72.1%
cell viability (U2OS [3]; 1 nM): 98.6%
cell viability (U2OS [3]; 10 nM): 102%
cell viability (U2OS [3]; 100 nM): 88.8%
cell viability (U2OS [3]; 1000 nM): 78.9%
cell viability (U2OS [3]; 10000 nM): 47.5%
cell viability (Vero E6 [4]; 1 nM): 97.5%
cell viability (Vero E6 [4]; 10 nM): 97.1%
cell viability (Vero E6 [4]; 100 nM): 102%
cell viability (Vero E6 [4]; 1000 nM): 75.2%
cell viability (Vero E6 [4]; 10000 nM): 21%
relative viability EC50 (Calu-3 [6]): 0.7 µM
relative viability EC50 (U2OS [7]): 1.09 µM
relative viability EC50 (Vero E6 [8]): 1.37 µM
drug sensitivity score (Caco-2 [9]): 3.8
drug sensitivity score (Calu-3 [10]): 12
drug sensitivity score (HepG2 [13]): 3.3
drug sensitivity score (U2OS [11]): 5.2
drug sensitivity score (Vero E6 [12]): 8

Cc1cc(NS(=O)(=O)c2ccc(N)cc2)no1 [sulfamethoxazole]
drug sensitivity score (Calu-3 [10]): 0
drug sensitivity score (HepG2 [13]): 0
drug sensitivity score (U2OS [11]): 0

CCC(CC)C(c1ccc(Nc2nc3ccccc3s2)cc1)n1cncn1 (centres undefined) [talarozole]
cell viability (Caco-2 [1]; 1 nM): 94.1%
cell viability (Caco-2 [1]; 10 nM): 104%
cell viability (Caco-2 [1]; 100 nM): 96%
cell viability (Caco-2 [1]; 1000 nM): 103%
cell viability (Caco-2 [1]; 10000 nM): 67.8%
cell viability (Calu-3 [2]; 1 nM): 100%
cell viability (Calu-3 [2]; 10 nM): 104%
cell viability (Calu-3 [2]; 100 nM): 103%
cell viability (Calu-3 [2]; 1000 nM): 109%
cell viability (Calu-3 [2]; 10000 nM): 104%
cell viability (HepG2 [14]; 1 nM): 92.3%
cell viability (HepG2 [14]; 10 nM): 92.5%
cell viability (HepG2 [14]; 100 nM): 104%
cell viability (HepG2 [14]; 1000 nM): 102%
cell viability (HepG2 [14]; 10000 nM): 63.7%
cell viability (U2OS [3]; 1 nM): 104%
cell viability (U2OS [3]; 10 nM): 104%
cell viability (U2OS [3]; 100 nM): 101%
cell viability (U2OS [3]; 1000 nM): 102%
cell viability (U2OS [3]; 10000 nM): 93.3%
cell viability (Vero E6 [4]; 1 nM): 108%
cell viability (Vero E6 [4]; 10 nM): 101%
cell viability (Vero E6 [4]; 100 nM): 99.3%
cell viability (Vero E6 [4]; 1000 nM): 99.1%
cell viability (Vero E6 [4]; 10000 nM): 105%
relative viability EC50 (Calu-3 [6]): > 10 µM
relative viability EC50 (U2OS [7]): > 10 µM
relative viability EC50 (Vero E6 [8]): > 10 µM
drug sensitivity score (Caco-2 [9]): 1.2
drug sensitivity score (Calu-3 [10]): 0
drug sensitivity score (HepG2 [13]): 1.6
drug sensitivity score (U2OS [11]): 0
drug sensitivity score (Vero E6 [12]): 0

Cn1ncnc1[C@H]1c2n[nH]c(=O)c3cc(F)cc(c23)N[C@@H]1c1ccc(F)cc1 [talazoparib]
cell viability (Caco-2 [1]; 1 nM): 105%
cell viability (Caco-2 [1]; 10 nM): 96.3%
cell viability (Caco-2 [1]; 100 nM): 93.7%
cell viability (Caco-2 [1]; 1000 nM): 82.7%
cell viability (Caco-2 [1]; 10000 nM): 85.9%
cell viability (Calu-3 [2]; 1 nM): 105%
cell viability (Calu-3 [2]; 10 nM): 84.3%
cell viability (Calu-3 [2]; 100 nM): 93.3%
cell viability (Calu-3 [2]; 1000 nM): 68.9%
cell viability (Calu-3 [2]; 10000 nM): 58.2%
cell viability (HepG2 [14]; 1 nM): 98.8%
cell viability (HepG2 [14]; 10 nM): 89.3%
cell viability (HepG2 [14]; 100 nM): 77.3%
cell viability (HepG2 [14]; 1000 nM): 71.4%
cell viability (HepG2 [14]; 10000 nM): 50.1%
cell viability (Vero E6 [4]; 1 nM): 95.1%
cell viability (Vero E6 [4]; 10 nM): 97.6%
cell viability (Vero E6 [4]; 100 nM): 77.6%
cell viability (Vero E6 [4]; 1000 nM): 66.3%
cell viability (Vero E6 [4]; 10000 nM): 54.5%
relative viability EC50 (Caco-2 [5]): > 10 µM
drug sensitivity score (Caco-2 [9]): 2.1
drug sensitivity score (Calu-3 [10]): 6.3
drug sensitivity score (HepG2 [13]): 8.5
drug sensitivity score (Vero E6 [12]): 8.7

CN1CCN(CCCN2c3ccccc3Sc3ccc(C(F)(F)F)cc32)CC1 [trifluoperazine]
cell viability (Caco-2 [1]; 1 nM): 92%
cell viability (Caco-2 [1]; 10 nM): 86.1%
cell viability (Caco-2 [1]; 100 nM): 84.3%
cell viability (Caco-2 [1]; 1000 nM): 82.6%
cell viability (Caco-2 [1]; 10000 nM): 83%
cell viability (Calu-3 [2]; 1 nM): 103%
cell viability (Calu-3 [2]; 10 nM): 99.3%
cell viability (Calu-3 [2]; 100 nM): 102%
cell viability (Calu-3 [2]; 1000 nM): 101%
cell viability (Calu-3 [2]; 10000 nM): 72.2%
cell viability (HepG2 [14]; 1 nM): 106%
cell viability (HepG2 [14]; 10 nM): 89.7%
cell viability (HepG2 [14]; 100 nM): 98%
cell viability (HepG2 [14]; 1000 nM): 92%
cell viability (HepG2 [14]; 10000 nM): 56.6%
cell viability (U2OS [3]; 1 nM): 97.4%
cell viability (U2OS [3]; 10 nM): 100%
cell viability (U2OS [3]; 100 nM): 101%
cell viability (U2OS [3]; 1000 nM): 98%
cell viability (U2OS [3]; 10000 nM): 85.5%
cell viability (Vero E6 [4]; 1 nM): 95.5%
cell viability (Vero E6 [4]; 10 nM): 103%
cell viability (Vero E6 [4]; 100 nM): 105%
cell viability (Vero E6 [4]; 1000 nM): 88.7%
cell viability (Vero E6 [4]; 10000 nM): 76.2%
relative viability EC50 (Caco-2 [5]): > 10 µM
relative viability EC50 (U2OS [7]): > 10 µM
relative viability EC50 (Vero E6 [8]): > 10 µM
drug sensitivity score (Caco-2 [9]): 4.6
drug sensitivity score (Calu-3 [10]): 1
drug sensitivity score (HepG2 [13]): 3.5
drug sensitivity score (U2OS [11]): 0.4
drug sensitivity score (Vero E6 [12]): 2.2
